{
  "source": "patent US10918647B2",
  "about": "“Selective bromodomain inhibition of fungal Bdf1” (University of Southern California, priority 2016, dated 2021)",
  "key": {"CaBdf1 BD2 [1]": {"target": "T1, CaBdf1 BD2 (Candida albicans, UniProt Q5A4W8)", "T1 sequence (Q5A4W8 383-492 limits assumed)": "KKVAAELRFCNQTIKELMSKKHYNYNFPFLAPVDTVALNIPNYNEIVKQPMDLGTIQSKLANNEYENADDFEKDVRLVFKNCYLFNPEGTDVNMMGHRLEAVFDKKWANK", "test": "HTRF inhibition assay of BD binding to H4ac4 peptide", "details": "for inhibition of CaBdf1 BD2: HTRF", "text": "(§1) FIG. 7. Homogeneous time-resolved fluorescence (HTRF) assay. a. Assay configuration. A biotinylated tetra-acetylated histone peptide is bound to streptavidin beads which are coupled to a terbium-based donor fluorophore, lumi-Tb cryptate. GST-tagged bromodomain is bound by an anti-GST antibody coupled to the acceptor fluorophore, an organic molecule termed D2. Peptide binding by the bromodomain brings the donor and acceptor within FRET distance. In this situation, excitation of the donor at 337 nm causes energy transfer to the […], whose emitted fluorescence is monitored at 665 nm in a time-resolved manner so as to eliminate transient background fluorescence. b-d. Binding of biotinylated tetra-acetylated H4 (H4ac4) peptide by the BD1 bromodomains from human Brd4 (b), S. cerevisiae Bdf1 (c) and C. albicans Bdf1 (d) as measured by an increase in HTRF signal with increasing peptide concentration.\n(§2) A key consideration in establishing fungal BET BD inhibition as a feasible chemotherapeutic strategy is whether these domains can be targeted by small-molecule inhibitors without antagonizing human BET function. To probe the similarity between the ligand binding pockets of C. albicans and human BET BDs, we asked whether human BET inhibitors could inhibit CaBdf1 BDs."}, "Brd4 BD1": {"target": "Brd4 BD1 (Homo sapiens, UniProt O60885)", "test": "Isothermal titration calorimetry (ITC)", "assay_type": "binding"}, "C. albicans": {"system": "C. albicans", "test": "Growth of C. albicans in vitro (liquid culture growth assay)", "assay_type": "cell-based", "text": "FIG. 8. CaBdf1 BDs are insensitive to human BET inhibitors. (a) HTRF inhibition assays performed on BD1 and BD2 from CaBdf1 and human Brd4 to evaluate the effects of four human BET inhibitors. Inhibition curves are shown as closed (BD1) and open (BD2) circles in green (Brd4) and magenta (Bdf1). IC50 values are summarized below each graph. (b) Thermal stability of the indicated BET BDs in the presence and absence of BET inhibitors determined by differential scanning fluorimetry. The thermal shift (ΔTm) for each inhibitor is indicated. Curves obtained in the presence (thick lines) or absence (thin lines) are plotted for CaBDF1 BD1 (solid magenta), CaBDF1 BD2 (dashed magenta) and human Brd4 (green). […] Experiments have been performed in the presence of doxycycline, which represses the pTetO-BDF1 allele.\nFIG. 13. Identification of a CaBdf1-BD1 inhibitor that phenocopies BD1 inactivation. (a) Chemical structure of dibenzothiazepinone compound MS5. (b) HTRF assay showing that MS5 inhibits CaBdf1-BD1 preferentially over CaBdf1-BD2 and with weak selectivity compared to hBrd4-BD1. (c) ITC experiment showing binding of MS5 towards the indicated BD. (d) Effect of MS5 on the growth of C. albicans. The first allele is indicated below the graph, the second is pMET-BDF1 (top) orpTetO-BDF1 (bottom). Strains were grown in the presence of doxycycline or methionine/cysteine, respectively, to repress expression from the second allele. MS5 compromises growth when CaBdf1-BD2 is inactivated by deletion or point-mutation. Statistical test is a two-sided paired t-test performed on ≥5 biological replicates (*p=0.01 to 0.05; **p=0.001 to 0.01; ***p<0.001). (e) Dose-response experiment showing the effect of MS5 on Bdf1 mutant strains.\nWe next tested the effect of the identified hit compounds on the growth of C. albicans in vitro. […] We therefore tested compounds that inhibited CaBdf1-BD1 with micromolar IC50 values but which were unselective or only weakly selective for the fungal BD."}, "CaBdf1 BD2 [2]": {"target": "T1, CaBdf1 BD2", "test": "Isothermal titration calorimetry (ITC)", "assay_type": "binding, C. albicans"}, "CaBdf1 BD1 [3]": {"target": "T2, CaBdf1 BD1 (Candida albicans, UniProt Q5A4W8)", "T2 sequence (Q5A4W8 206-315 limits assumed)": "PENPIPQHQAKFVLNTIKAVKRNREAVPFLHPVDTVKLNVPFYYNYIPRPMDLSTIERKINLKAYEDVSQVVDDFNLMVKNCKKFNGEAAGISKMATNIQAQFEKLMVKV", "test": "Isothermal titration calorimetry (ITC)", "assay_type": "binding, C. albicans"}, "CaBdf1 BD1 [4]": {"target": "T2, CaBdf1 BD1", "test": "HTRF inhibition assay of BD binding to H4ac4 peptide", "text": "as §1, with “b-d.” for “b-d. Binding of biotinylated tetra-acetylated H4 (H4ac4) peptide by the BD1 bromodomains from human Brd4 (b), S. cerevisiae Bdf1 (c) and C. albicans Bdf1 (d) as measured by an increase in HTRF signal with increasing peptide concentration.”\nas §2"}},
  "data": [
    {"molecule": "CCOC(=O)Nc1cc(-c2ccc(C)c(NS(C)(=O)=O)c2)nn2c(C)nnc12", "note": "[bromosporine, reference compound]", "values": [
      {"measurement": "IC50", "setting": "CaBdf1 BD2 [1]", "value": "~300", "unit": "nM"}
    ]},
    {"molecule": "O=C1c2ccccc2Sc2cc(-c3noc(-c4cnccn4)n3)ccc2N1C1CC1", "note": "[MS4]", "values": [
      {"measurement": "binding (ITC)", "setting": "Brd4 BD1", "value": "no significant binding was detected"},
      {"measurement": "effect on the growth of C. albicans in vitro", "setting": "C. albicans", "value": "little effect"},
      {"measurement": "inhibition of CaBdf1 BD2", "setting": "CaBdf1 BD2 [1]", "value": "only modest inhibition"}
    ]},
    {"molecule": "Cc1ccc(Nc2c(-c3ccc(O)cc3)nc3c(C)cccn23)cc1", "note": "[MS51, 4-(8-Methyl-3-(p-tolylamino)imidazo[1,2-a]pyridin-2-yl)phenol]", "values": [
      {"measurement": "selectivity relative to BD1 of either CaBdf1 or human Brd4", "setting": "CaBdf1 BD2 [1]", "value": "high selectivity"},
      {"measurement": "Kd", "setting": "CaBdf1 BD2 [2]; HTRF and ITC assays, read-out: affinity", "value": "1000 to 2000", "unit": "nM"}
    ]},
    {"molecule": "CN1C(=O)c2ccccc2Sc2cc(NC(=O)C3CCCO3)ccc21", "note": "(centres unmarked) [MS5, N-(10-methyl-11-oxo-10,11-dihydrodibenzo[b,f][1,4]thiazepin-7-yl)tetrahydrofuran-2-carboxamide]", "values": [
      {"measurement": "Kd / affinity", "setting": "CaBdf1 BD1 [3]; ITC (MS5: HTRF and ITC assays)", "value": "low micromolar"},
      {"measurement": "IC50", "setting": "C. albicans; Candida albicans, read-out: IC50 (growth dose-response curve)", "value": 40000, "unit": "nM"},
      {"measurement": "effect on growth compared to vehicle (DMSO)", "setting": "C. albicans; liquid culture, strains expressing WT Bdf1 or mutant Bdf1 inactivated in the first BD", "value": "little effect"},
      {"measurement": "effect on growth", "setting": "C. albicans; strains inactivated in BD2", "value": "significantly compromised"},
      {"measurement": "inhibition of CaBdf1 BD2", "setting": "CaBdf1 BD2 [1]", "value": "only a weak inhibitory effect"}
    ]},
    {"molecule": "COc1cc2c(cc1-c1c(C)noc1C)ncc1[nH]c(=O)n([C@H](C)c3ccccn3)c12", "note": "[IBET-151, reference compound]", "values": [
      {"measurement": "effect on C. albicans growth", "setting": "C. albicans; even when Bdf1 bromodomains are deleted, in the presence of doxycycline (represses pTetO-BDF1 allele)", "value": "do not affect"},
      {"measurement": "effect on the growth of C. albicans in vitro", "setting": "C. albicans", "value": "none of the BET inhibitors had any significant effect"},
      {"measurement": "reduction in sensitivity relative to Brd4", "setting": "CaBdf1 BD1 [4]; CaBdf1 BD1 vs corresponding Brd4 BD", "value": 60, "unit": "fold"},
      {"measurement": "IC50", "setting": "CaBdf1 BD1 [4]; HTRF, strongest inhibition", "value": "~300", "unit": "nM"}
    ]},
    {"molecule": "Cc1sc2c(c1C)C(c1ccc(Cl)cc1)=N[C@@H](CC(=O)OC(C)(C)C)c1nnc(C)n1-2", "note": "[JQ1, reference compound]", "values": [
      {"measurement": "binding (ITC)", "setting": "CaBdf1 BD1 [3]; ITC", "value": "no binding was detected"},
      {"measurement": "binding (ITC)", "setting": "CaBdf1 BD2 [2]; ITC", "value": "no binding was detected"}
    ]}
  ]
}
